# Test results: US20220167645A1, “METHODS OF IMPROVING FISH FEED CONVERSION RATE AND SURVIVAL” (AQUINOVO LTD., priority 2019, published 2022)
# Numbered stars: 1 amine (or outer) side, 2 acyl side, 3 side chain; on linkers, the order of the positions; unused ones are H or OH. Square brackets hold non-standard residues; d marks the D form. Suc = O=C(CCC(=O)[*:2])[*:1]; NMeV = CN[C@H](C(=O)O)C(C)C; βAla = NCCC(=O)O
# Test system: Tilapia fish
# Assay: Experiment #3: tilapia fed AN6-coated feed, treatment schedules 1 to 8 (survival, weight, length, size distribution, FCR)
# Assay type: in vivo
# Details: for Average weight/fish (g) / Total weight/cage (g) / Average FCR/cage / Average density (body/cage) / Average weight gain/fish (g): D 236 to D 279, % change relative to control; for % big fish (Big fish 279 dph >1000 g) / % small fish (Small fish 279 dph >476 g) / Δ Treatment - Control (%) big fish (>1000 g) / Δ Treatment - Control (%) small fish (>476 g) / Big fish # (Big fish 279 dph >1000 g) / Small fish # (Small fish 279 dph): 279 dph
# Procedure: The following fish feed was used in this experiment: MeM (powder, manufactured by Bern Aqua), Nanolis P1, P2 (pellet sizes of 1 mm, 1.2-1.5 mm, respectively, manufactured by Ocialis) and Tilaphi 2, 3 & 4 (pellet sizes of 2 mm, 3-4 mm & 5.5 mm manufactured by Ocialis). The feed content is in described in Table 4.
# Feed was coated using the following general procedure: Different amounts of the peptide AN6 (SEQ ID NO: 6) were prepared by dissolving the peptide in Tris-HCl solution (50 mM, pH=8.8) in ratio of 15 mg peptide to 1.25 ml Tris-HCl solution. Then, each of the various solutions was mixed with 3 Kg of the basic feed pellets (depending on fish size) using an electric mixer. The peptide-feed mixtures where then dried either in oven at 40° C. for 24 hours or in drying drum (at room temperature) for few hours to form coated pellets.
# Tilapia fish (n=4800) were raised from day 10 (0.05 g) post-hatch (dph) in indoor tanks and then transferred to outdoor cages in ponds (40-279 dph). Each cage/tank is an experimental unit. The fish were fed to apparent satiation 2-4 times a day with feed appropriate to their age and treatment as described in Table 5.
# The trial included total 48 cages representing 8 treatments, with 6 repeats each. Each cage contained about 100 fish. […] Fed to fish throughout the entire growth-trial period (for 279 days); • Treatment 2 (5 ppm from 10 dph for 120 days): The control diet with the addition of 5 mg peptide/kg of diet (Feed F). Fish were fed the peptide enriched diet for 120 days (4 months), from 10 days of age (D0—the first day of the experiment) to 130 days of age (D120), and the control diet during the last 6 months (159 days) (Feed E); • Treatment 3 (10 ppm from 10 dph for 60 days): The control diet with the addition of 10 mg peptide/kg of diet (Feed G). […] Fish were fed the peptide enriched diet for 90 days (3 months) from 10 days of age (D0) to 100 days of age (D90) and the control diet for the last 7 months (189 days) (Feed E); • Treatment 5 (10 ppm from 10 dph for 120 days): The control diet with the addition of 10 mg peptide/kg of diet (Feed G). Fish were fed the peptide enriched diet for 120 days (4 months) from 10 days of age (D0) to 130 days of age (D120) and the control diet for the last 6 months (159 days) (Feed E); • Treatment 6 (10 ppm from 100 dph for 30 days): The control diet with the addition of 10 mg peptide/kg of diet (Feed G). Fish were fed the peptide enriched diet for 30 days (1 month) from 100 days of age (D90) to 130 days of age (D120) and the control diet for the first three months (90 days from D0 to D90) and the last 6 months (159 days) (Feed E); • Treatment 7 (30 ppm from 10 dph for 60 days): The control diet with the addition of 30 mg peptide/kg of diet (Feed H). Fish were fed the peptide enriched diet for 60 days (2 months) from 10 days of age (D0) to 70 days of age (D60), and the control diet during the last 8 months (219 days) (Feed E); • Treatment 8 (30 ppm from 10 dph for 90 days): The control diet with the addition of 30 mg peptide/kg of diet (Feed H). Fish were fed the peptide enriched diet for 90 days (3 months) from 10 days of age (D0) to 100 days of age (D90) and the control diet for the last 7 months (189 days) (Feed E).
# During the experimental period, fish weight and length were measured once a month. Individual fish sex was determined at days 96 and 279 of the experiment. Average fish weight per cage were calculated for each measurement period (FIG. 8). […] Between two weight measurements, average weight gain (FIG. 9A) and daily growth rates (FIG. 9B) were calculated by subtracting the average weight at the beginning and end of the measuring period and dividing by the number of days between.
# In order to determine the efficiency of feed conversion into fish substance in experiments (#1, #2, #3), FCR values which reflect the amount of feed needed to grow a kilogram fish, were calculated for each period and for the entire fish growth period. […]
# [1] = Treatment 5 (10 ppm from 10 dph for 120 days)
# [2] = Treatment 5 (10 ppm from 10 dph for 120 days), female fish, D 96
# [3] = Treatment 5 (10 ppm from 10 dph for 120 days), female fish, D 279
# [4] = Treatment 5 (10 ppm from 10 dph for 120 days), male fish, D 96
# [5] = Treatment 5 (10 ppm from 10 dph for 120 days), male fish, D 279
# [6] = Treatment 6 (10 ppm from 100 dph for 30 days)
# [7] = Treatment 6 (10 ppm from 100 dph for 30 days), of 442 fish
# [8] = Treatment 6 (10 ppm from 100 dph for 30 days), female fish, D 96
# [9] = Treatment 6 (10 ppm from 100 dph for 30 days), female fish, D 279
# [10] = Treatment 6 (10 ppm from 100 dph for 30 days), male fish, D 96
# [11] = Treatment 6 (10 ppm from 100 dph for 30 days), male fish, D 279
# [12] = Treatment 7 (30 ppm from 10 dph for 60 days)
# [13] = Treatment 7 (30 ppm from 10 dph for 60 days), of 427 fish
# [14] = Treatment 7 (30 ppm from 10 dph for 60 days), female fish, D 96
# [15] = Treatment 7 (30 ppm from 10 dph for 60 days), female fish, D 279
# [16] = Treatment 7 (30 ppm from 10 dph for 60 days), male fish, D 96
# [17] = Treatment 7 (30 ppm from 10 dph for 60 days), male fish, D 279
# [18] = Treatment 8 (30 ppm from 10 dph for 90 days)
# [19] = Treatment 8 (30 ppm from 10 dph for 90 days), of 446 fish
# [20] = Treatment 8 (30 ppm from 10 dph for 90 days), female fish, D 96
# [21] = Treatment 8 (30 ppm from 10 dph for 90 days), female fish, D 279
# [22] = Treatment 8 (30 ppm from 10 dph for 90 days), male fish, D 96
# [23] = Treatment 8 (30 ppm from 10 dph for 90 days), male fish, D 279
substance,measurement,setting,value
Succ-Asp-Ser- D-Trp -N(Me)Val-βAla-Leu-Met-NH2 (Suc-DS[dW][NMeV][βAla]LM-NH2; SMILES CSCC[C@H](NC(=O)[C@H](CC(C)C)NC(=O)CCNC(=O)[C@H](C(C)C)N(C)C(=O)[C@@H](Cc1c[nH]c2ccccc12)NC(=O)[C@H](CO)NC(=O)[C@H](CC(=O)O)NC(=O)CCC(=O)O)C(N)=O) [AN6],Average weight/fish (g),[1],3.29%
same,Total weight/cage (g),[1],1.28%
same,Length/fish (cm) Mean,[2],15.95 cm
same,Weight/fish (g) Mean,[2],82.96 g
same,Δ Mean % (Treatment vs. control) Length/fish,[2],1.01%
same,Δ Mean % (Treatment vs. control) Weight/fish,[2],0.90%
same,Length/fish (cm) Mean,[3],30.33 cm
same,Weight/fish (g) Mean,[3],611.23 g
same,Δ Mean % (Treatment vs. control) Length/fish,[3],0.66%
same,Δ Mean % (Treatment vs. control) Weight/fish,[3],1.55%
same,Length/fish (cm) Mean,[4],17.08 cm
same,Weight/fish (g) Mean,[4],100.46 g
same,Δ Mean % (Treatment vs. control) Length/fish,[4],−0.81%
same,Δ Mean % (Treatment vs. control) Weight/fish,[4],−4.78%
same,Length/fish (cm) Mean,[5],34.21 cm
same,Weight/fish (g) Mean,[5],859.1 g
same,Δ Mean % (Treatment vs. control) Length/fish,[5],−0.49%
same,Δ Mean % (Treatment vs. control) Weight/fish,[5],−0.72%
same,% big fish (Big fish 279 dph >1000 g),[6],12.9%
same,% small fish (Small fish 279 dph >476 g),[6],6.6%
same,Δ Treatment - Control (%) big fish (>1000 g),[6],2.7%
same,Δ Treatment - Control (%) small fish (>476 g),[6],−2.6%
same,Big fish # (Big fish 279 dph >1000 g),[7],57
same,Small fish # (Small fish 279 dph),[7],29
same,Average FCR/cage,[6],0.00%
same,Average density (body/cage),[6],−1.55%
same,Average weight gain/fish (g),[6],2.11%
same,Average weight/fish (g),[6],0.97%
same,Total weight/cage (g),[6],−0.53%
same,Length/fish (cm) Mean,[8],16.04 cm
same,Weight/fish (g) Mean,[8],87.28 g
same,Δ Mean % (Treatment vs. control) Length/fish,[8],1.58%
same,Δ Mean % (Treatment vs. control) Weight/fish,[8],6.15%
same,Length/fish (cm) Mean,[9],30.45 cm
same,Weight/fish (g) Mean,[9],617.44 g
same,Δ Mean % (Treatment vs. control) Length/fish,[9],1.06%
same,Δ Mean % (Treatment vs. control) Weight/fish,[9],2.58%
same,Length/fish (cm) Mean,[10],17.07 cm
same,Weight/fish (g) Mean,[10],105.78 g
same,Δ Mean % (Treatment vs. control) Length/fish,[10],−0.87%
same,Δ Mean % (Treatment vs. control) Weight/fish,[10],0.27%
same,Length/fish (cm) Mean,[11],34.19 cm
same,Weight/fish (g) Mean,[11],863.26 g
same,Δ Mean % (Treatment vs. control) Length/fish,[11],−0.55%
same,Δ Mean % (Treatment vs. control) Weight/fish,[11],−0.24%
same,% big fish (Big fish 279 dph >1000 g),[12],10.8%
same,% small fish (Small fish 279 dph >476 g),[12],5.4%
same,Δ Treatment - Control (%) big fish (>1000 g),[12],0.5%
same,Δ Treatment - Control (%) small fish (>476 g),[12],−3.7%
same,Big fish # (Big fish 279 dph >1000 g),[13],46
same,Small fish # (Small fish 279 dph),[13],23
same,Average FCR/cage,[12],0.00%
same,Average density (body/cage),[12],−4.89%
same,Average weight gain/fish (g),[12],1.43%
same,Average weight/fish (g),[12],1.37%
same,Total weight/cage (g),[12],−4.56%
same,Length/fish (cm) Mean,[14],15.73 cm
same,Weight/fish (g) Mean,[14],82.52 g
same,Δ Mean % (Treatment vs. control) Length/fish,[14],−0.38%
same,Δ Mean % (Treatment vs. control) Weight/fish,[14],0.36%
same,Length/fish (cm) Mean,[15],30.53 cm
same,Weight/fish (g) Mean,[15],628.2 g
same,Δ Mean % (Treatment vs. control) Length/fish,[15],1.33%
same,Δ Mean % (Treatment vs. control) Weight/fish,[15],4.37%
same,Length/fish (cm) Mean,[16],17.78 cm
same,Weight/fish (g) Mean,[16],109.68 g
same,Δ Mean % (Treatment vs. control) Length/fish,[16],3.25%
same,Δ Mean % (Treatment vs. control) Weight/fish,[16],3.96%
same,Length/fish (cm) Mean,[17],34.04 cm
same,Weight/fish (g) Mean,[17],840.39 g
same,Δ Mean % (Treatment vs. control) Length/fish,[17],−0.99%
same,Δ Mean % (Treatment vs. control) Weight/fish,[17],−2.88%
same,% big fish (Big fish 279 dph >1000 g),[18],20.4%
same,% small fish (Small fish 279 dph >476 g),[18],5.6%
same,Δ Treatment - Control (%) big fish (>1000 g),[18],10.2%
same,Δ Treatment - Control (%) small fish (>476 g),[18],−3.5%
same,Big fish # (Big fish 279 dph >1000 g),[19],91
same,Small fish # (Small fish 279 dph),[19],25
same,Average FCR/cage,[18],−2.14%
same,Average density (body/cage),[18],−0.67%
same,Average weight gain/fish (g),[18],13.57%
same,Average weight/fish (g),[18],7.11%
same,Total weight/cage (g),[18],6.23%
same,Length/fish (cm) Mean,[20],16.17 cm
same,Weight/fish (g) Mean,[20],89.02 g
same,Δ Mean % (Treatment vs. control) Length/fish,[20],2.41%
same,Δ Mean % (Treatment vs. control) Weight/fish,[20],8.27%
same,Length/fish (cm) Mean,[21],30.65 cm
same,Weight/fish (g) Mean,[21],649.16 g
same,Δ Mean % (Treatment vs. control) Length/fish,[21],1.73%
same,Δ Mean % (Treatment vs. control) Weight/fish,[21],7.85%
same,Length/fish (cm) Mean,[22],17.21 cm
same,Weight/fish (g) Mean,[22],106.64 g
same,Δ Mean % (Treatment vs. control) Length/fish,[22],−0.06%
same,Δ Mean % (Treatment vs. control) Weight/fish,[22],1.08%
same,Length/fish (cm) Mean,[23],34.56 cm
same,Weight/fish (g) Mean,[23],912.05 g
same,Δ Mean % (Treatment vs. control) Length/fish,[23],0.52%
same,Δ Mean % (Treatment vs. control) Weight/fish,[23],5.40%
same,average weight of males and females compared to their respective controls,differential analysis of male vs female performances,improved average weight
